Reference: patent publication US5393869A, “Parathyroid hormone derivatives” (Takeda Chemical Industries, Ltd., priority 1990, dated 1995)
Starred links: 1 amine or outer side, 2 acyl side, 3 side chain; linkers in the order of their positions; H or OH if unused. Non-standard residues stand in square brackets, D forms with d. Residues, ends and D or L forms follow the SMILES beside them. X1 = O=C([C@H](Cc1c(C2SCCS2)[nH]c2ccccc12)N[*:1])[*:2]

The compounds below were run against T1, PTH receptor (Mus musculus, UniProt P41593) (assay: cAMP production by PTH (1-34) analogues in MC3T3-EI osteoblast-like cells). Details: cAMP production, 0.01-100 nM analogue, room temperature 30 minutes, hPTH(1-34) = 1.00.
T1 construct: a mouse cranial bone-derived osteoblast-like cell strain, MC3T3-EI cells, cultivated on a 96-well multiplate; endogenous in cells; host or cells: MC3T3-E1 mouse osteoblast-like cells
T1 sequence (P41593 27-591): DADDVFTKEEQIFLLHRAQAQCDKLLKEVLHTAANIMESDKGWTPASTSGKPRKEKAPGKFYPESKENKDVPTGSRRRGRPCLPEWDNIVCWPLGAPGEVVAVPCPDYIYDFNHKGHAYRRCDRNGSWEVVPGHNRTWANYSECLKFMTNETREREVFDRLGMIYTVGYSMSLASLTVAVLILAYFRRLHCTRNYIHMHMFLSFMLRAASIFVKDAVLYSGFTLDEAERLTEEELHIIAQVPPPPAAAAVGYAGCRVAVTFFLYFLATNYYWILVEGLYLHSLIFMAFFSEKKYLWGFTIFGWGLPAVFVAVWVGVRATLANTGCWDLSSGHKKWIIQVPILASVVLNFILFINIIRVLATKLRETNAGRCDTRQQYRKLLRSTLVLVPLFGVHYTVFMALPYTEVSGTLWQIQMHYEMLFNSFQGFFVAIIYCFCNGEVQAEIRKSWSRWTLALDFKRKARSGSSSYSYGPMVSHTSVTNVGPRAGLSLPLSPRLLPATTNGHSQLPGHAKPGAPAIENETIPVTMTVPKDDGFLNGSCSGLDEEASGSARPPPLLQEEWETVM
Assay type: cell-based
Experimental: The biological activity of the peptide analogues was evaluated by a modified version of the method reported by Shigeno et al. in The Journal of Biological Chemistry 263, 18369-18377 (1988). A culture solution (Hank's solution, containing 20 mM N-2-hydroxyethylpiperazine-N'-2-ethanesulfonic acid (HEPES), 0.1% bovine serum albumin and 0.5 mM isobutylmethyl-xanthine) containing 0.01, 0.1, 1, 10 or 100 nM analogue was added in an amount of 100 μto a mouse cranial bone-derived osteoblast-like cell strain, MC3T3-EI cells, cultivated on a 96-well multiplate (Nunclon, Nunc), followed by reaction at room temperature for 30 minutes. After addition of 100 μof 0.2N hydrochloric acid, the mixture was immersed in boiling water for 2.5 minutes, and cyclic adenosine monophosphate (cAMP) produced by a PTH receptor was extracted from the cells. The total cAMP in the culture solution and the cells was assayed using a commercial radioimmunoassay kit (cyclic AMP [^125 I] kit "Du Pont-Daiichi", Daiichi Kagaku Yakuhin).
CC[C@H](C)[C@H](NC(=O)[C@H](CCC(=O)O)NC(=O)[C@H](CO)NC(=O)[C@@H](NC(=O)[C@@H](N)CO)C(C)C)C(=O)N[C@@H](CCC(N)=O)C(=O)N[C@@H](CC(C)C)C(=O)N[C@@H](CCSC)C(=O)N[C@@H](Cc1c[nH]cn1)C(=O)N[C@@H](CC(N)=O)C(=O)N[C@@H](CC(C)C)C(=O)N[C@H](Cc1ccc2ccccc2c1)C(=O)N[C@@H](CCCCN)C(=O)N[C@@H](Cc1c[nH]cn1)C(=O)N[C@@H](CC(C)C)C(=O)N[C@@H](CC(N)=O)C(=O)N[C@@H](CO)C(=O)N[C@@H](CCSC)C(=O)N[C@@H](CCC(=O)O)C(=O)N[C@@H](CCCNC(=N)N)C(=O)N[C@H](C(=O)N[C@@H](CCC(=O)O)C(=O)N[C@@H](Cc1c[nH]c2ccccc12)C(=O)N[C@@H](CC(C)C)C(=O)N[C@@H](CCCNC(=N)N)C(=O)N[C@@H](CCCCN)C(=O)N[C@@H](CCCCN)C(=O)N[C@@H](CC(C)C)C(=O)N[C@@H](CCC(N)=O)C(=O)N[C@@H](CC(=O)O)C(=O)N[C@H](C(=O)N[C@@H](Cc1c[nH]cn1)C(=O)N[C@@H](CC(N)=O)C(=O)N[C@@H](Cc1ccccc1)C(N)=O)C(C)C)C(C)C [(3-(2-naphthyl)-D-Ala^12)hPTH(1-34)NH2] was tested, and the “Biological Activity (Represented by Relative Activity to hPTH(1-34))” value was 0.9. With CC[C@H](C)[C@H](NC(=O)[C@H](CCC(=O)O)NC(=O)[C@H](CO)NC(=O)[C@@H](NC(=O)[C@@H](N)CO)C(C)C)C(=O)N[C@@H](CCC(N)=O)C(=O)N[C@@H](CC(C)C)C(=O)N[C@@H](CCSC)C(=O)N[C@@H](Cc1c[nH]cn1)C(=O)N[C@@H](CC(N)=O)C(=O)N[C@@H](CC(C)C)C(=O)NCC(=O)N[C@@H](CCCCN)C(=O)N[C@@H](Cc1c[nH]cn1)C(=O)N[C@@H](CC(C)C)C(=O)N[C@@H](CC(N)=O)C(=O)N[C@@H](CO)C(=O)N[C@@H](CCSC)C(=O)N[C@@H](CCCNC(=N)N)C(=O)N[C@@H](CCCNC(=N)N)C(=O)N[C@@H](CCCNC(=N)N)C(=O)N[C@@H](CCC(=O)O)C(=O)N[C@@H](Cc1c(C2SCCS2)[nH]c2ccccc12)C(=O)N[C@@H](CC(C)C)C(=O)N[C@@H](CCCNC(=N)N)C(=O)N[C@@H](CCCCN)C(=O)N[C@@H](CCCCN)C(=O)N[C@@H](CC(C)C)C(=O)N[C@@H](CCC(N)=O)C(=O)N[C@@H](CC(=O)O)C(=O)N[C@H](C(=O)N[C@@H](Cc1c[nH]cn1)C(=O)N[C@@H](CC(N)=O)C(=O)N[C@@H](Cc1ccccc1)C(N)=O)C(C)C [(Arg^19,21,2-(1,3-dithiolan-2-yl)-Trp^23)hPTH(1-34)NH2] (H-SVSEIQLMHNLGKHLNSMRRRE[X1]LRKKLQDVHNF-NH2) the “Biological Activity (Represented by Relative Activity to hPTH(1-34))” value was 1.7. With CC[C@H](C)[C@H](NC(=O)[C@H](CCC(=O)O)NC(=O)[C@H](CO)NC(=O)[C@@H](NC(=O)[C@@H](N)CO)C(C)C)C(=O)N[C@@H](CCC(N)=O)C(=O)N[C@@H](CC(C)C)C(=O)N[C@@H](CCSC)C(=O)N[C@@H](Cc1c[nH]cn1)C(=O)N[C@@H](CC(N)=O)C(=O)N[C@@H](Cc1ccc2ccccc2c1)C(=O)NCC(=O)N[C@@H](CCCCN)C(=O)N[C@@H](Cc1c[nH]cn1)C(=O)N[C@@H](CC(C)C)C(=O)N[C@@H](CC(N)=O)C(=O)N[C@@H](CO)C(=O)N[C@@H](CCSC)C(=O)N[C@@H](CCC(=O)O)C(=O)N[C@@H](CCCNC(=N)N)C(=O)N[C@H](C(=O)N[C@@H](CCC(=O)O)C(=O)N[C@@H](Cc1c[nH]c2ccccc12)C(=O)N[C@@H](CC(C)C)C(=O)N[C@@H](CCCNC(=N)N)C(=O)N[C@@H](CCCCN)C(=O)N[C@@H](CCCCN)C(=O)N[C@@H](CC(C)C)C(=O)N[C@@H](CCC(N)=O)C(=O)N[C@@H](CC(=O)O)C(=O)N[C@H](C(=O)N[C@@H](Cc1c[nH]cn1)C(=O)N[C@@H](CC(N)=O)C(=O)N[C@@H](Cc1ccccc1)C(N)=O)C(C)C)C(C)C [[3-(2-naphthyl)-Ala^11] hPTH (1-34)NH2] the “Biological Activity (Represented by Relative Activity to hPTH(1-34))” value was 1.7. CC[C@H](C)[C@H](NC(=O)[C@H](CCC(=O)O)NC(=O)[C@H](CO)NC(=O)[C@@H](NC(=O)C(C)(C)N)C(C)C)C(=O)N[C@@H](CCC(N)=O)C(=O)N[C@@H](CC(C)C)C(=O)N[C@@H](CCSC)C(=O)N[C@@H](Cc1c[nH]cn1)C(=O)N[C@@H](CC(N)=O)C(=O)N[C@@H](CC(C)C)C(=O)NCC(=O)N[C@@H](CCCCN)C(=O)N[C@@H](Cc1c[nH]cn1)C(=O)N[C@@H](CC(C)C)C(=O)N[C@@H](CC(N)=O)C(=O)N[C@@H](CO)C(=O)N[C@@H](CCSC)C(=O)N[C@@H](CCC(=O)O)C(=O)N[C@@H](CCCNC(=N)N)C(=O)N[C@H](C(=O)N[C@@H](CCC(=O)O)C(=O)N[C@@H](Cc1c[nH]c2ccccc12)C(=O)N[C@@H](CC(C)C)C(=O)N[C@@H](CCCNC(=N)N)C(=O)N[C@@H](CCCCN)C(=O)N[C@@H](CCCCN)C(=O)N[C@@H](CC(C)C)C(=O)N[C@@H](CCC(N)=O)C(=O)N[C@@H](CC(=O)O)C(=O)N[C@H](C(=O)N[C@@H](Cc1c[nH]cn1)C(=O)N[C@@H](CC(N)=O)C(=O)N[C@@H](Cc1ccccc1)C(=O)O)C(C)C)C(C)C [[Aib^1] hPTH (1-34), (Aib^1)hPTH(1-34)] was tested, and the “Biological Activity (Represented by Relative Activity to hPTH(1-34))” value was 1.7. With CC[C@H](C)[C@H](NC(=O)[C@H](CCC(=O)O)NC(=O)[C@H](CO)NC(=O)[C@@H](NC(=O)[C@@H](N)CO)C(C)C)C(=O)N[C@@H](CCC(N)=O)C(=O)N[C@@H](CC(C)C)C(=O)N[C@@H](CCSC)C(=O)N[C@@H](Cc1c[nH]cn1)C(=O)N[C@@H](CC(N)=O)C(=O)N[C@@H](CC(C)C)C(=O)N[C@H](CC(C)C)C(=O)N[C@@H](CCCCN)C(=O)N[C@@H](Cc1c[nH]cn1)C(=O)N[C@@H](CC(C)C)C(=O)N[C@@H](CC(N)=O)C(=O)N[C@@H](CO)C(=O)N[C@@H](CCSC)C(=O)N[C@@H](CCC(=O)O)C(=O)N[C@@H](CCCNC(=N)N)C(=O)N[C@H](C(=O)N[C@@H](CCC(=O)O)C(=O)N[C@@H](Cc1c[nH]c2ccccc12)C(=O)N[C@@H](CC(C)C)C(=O)N[C@@H](CCCNC(=N)N)C(=O)N[C@@H](CCCCN)C(=O)N[C@@H](CCCCN)C(=O)N[C@@H](CC(C)C)C(=O)N[C@@H](CCC(N)=O)C(=O)N[C@@H](CC(=O)O)C(=O)N[C@H](C(=O)N[C@@H](Cc1c[nH]cn1)C(=O)N[C@@H](CC(N)=O)C(=O)N[C@@H](Cc1ccccc1)C(N)=O)C(C)C)C(C)C [[D-Leu^12] hPTH (1-34)NH2, (D-Leu^12)hPTH(1-34)NH2] the “Biological Activity (Represented by Relative Activity to hPTH(1-34))” value was 0.5. With CC[C@H](C)[C@H](NC(=O)[C@H](CCC(=O)O)NC(=O)[C@H](CO)NC(=O)[C@@H](NC(=O)[C@@H](N)CO)C(C)C)C(=O)N[C@@H](CCC(N)=O)C(=O)N[C@@H](CC(C)C)C(=O)N[C@@H](CCSC)C(=O)N[C@@H](Cc1c[nH]cn1)C(=O)N[C@@H](CC(N)=O)C(=O)N[C@@H](CC(C)C)C(=O)N[C@H](CO)C(=O)N[C@@H](CCCCN)C(=O)N[C@@H](Cc1c[nH]cn1)C(=O)N[C@@H](CC(C)C)C(=O)N[C@@H](CC(N)=O)C(=O)N[C@@H](CO)C(=O)N[C@@H](CCSC)C(=O)N[C@@H](CCC(=O)O)C(=O)N[C@@H](CCCNC(=N)N)C(=O)N[C@H](C(=O)N[C@@H](CCC(=O)O)C(=O)N[C@@H](Cc1c[nH]c2ccccc12)C(=O)N[C@@H](CC(C)C)C(=O)N[C@@H](CCCNC(=N)N)C(=O)N[C@@H](CCCCN)C(=O)N[C@@H](CCCCN)C(=O)N[C@@H](CC(C)C)C(=O)N[C@@H](CCC(N)=O)C(=O)N[C@@H](CC(=O)O)C(=O)N[C@H](C(=O)N[C@@H](Cc1c[nH]cn1)C(=O)N[C@@H](CC(N)=O)C(=O)N[C@@H](Cc1ccccc1)C(N)=O)C(C)C)C(C)C [[D-Ser^12] hPTH (1-34)NH2, (D-Ser^12)hPTH(1-34)NH2] the “Biological Activity (Represented by Relative Activity to hPTH(1-34))” value was 0.8. CC[C@H](C)[C@H](NC(=O)[C@H](CCC(=O)O)NC(=O)[C@H](CO)NC(=O)[C@@H](NC(=O)[C@@H](N)CO)C(C)C)C(=O)N[C@@H](CCC(N)=O)C(=O)N[C@@H](CC(C)C)C(=O)N[C@@H](CCSC)C(=O)N[C@@H](Cc1c[nH]cn1)C(=O)N[C@@H](CC(N)=O)C(=O)N[C@@H](CC(C)C)C(=O)NCC(=O)N[C@@H](CCCCN)C(=O)N[C@@H](Cc1c[nH]cn1)C(=O)N[C@@H](CC(C)C)C(=O)N[C@@H](CC(N)=O)C(=O)N[C@@H](CO)C(=O)N[C@@H](CCSC)C(=O)N[C@@H](CCC(=O)O)C(=O)N[C@@H](CCCNC(=N)N)C(=O)N[C@H](C(=O)N[C@@H](CCC(=O)O)C(=O)N[C@@H](Cc1c[nH]c2ccccc12)C(=O)N[C@@H](CC(C)C)C(=O)N[C@@H](CCCNC(=N)N)C(=O)N[C@@H](CCCCN)C(=O)N[C@@H](CCC(N)=O)C(=O)N[C@@H](CC(C)C)C(=O)N[C@@H](CCC(N)=O)C(=O)N[C@@H](CC(=O)O)C(=O)N[C@H](C(=O)N[C@@H](Cc1c[nH]cn1)C(=O)N[C@@H](CC(N)=O)C(=O)N[C@@H](Cc1ccccc1)C(=O)O)C(C)C)C(C)C [[Gln^27] hPTH (1-34), (Gln^27)hPTH(1-34)] was tested, and the “Biological Activity (Represented by Relative Activity to hPTH(1-34))” value was 2.5.
